Literature values in patent US20210368800A1, “Quickly, easily, and economically creating and maintaining a low bio-load on surfaces that may be large and/or of complex contour and finish” (priority 2020, published 2021).

Key:
norovirus = conditions: at 50 ppm; electrolytically generated hypochlorous acid

OCl [hypochlorous acid, Hypochlorous Acid]
time to kill norovirus (norovirus): less than one | effective in eliminating coronavirus 0C43 (coronavirus 0C43): more than 99.999%
